pEC50: −log10 of the molar value.
Legend:
[1] = target: T1, glutathione-S-transferase-labeled FXR human protein (Homo sapiens, UniProt Q96RI1); experiment: FXR biochemical experiment (alphascreen, coactivator recruitment); details: for pEC50: alphascreen, GST-FXR human protein with biotin-labeled steroid receptor coactivator, read-out: FXR enzymatic activity EC50; for FXR enzymatic activity Efficacy: highest signal relative to highest signal of the reference compound
T1 construct: purchased Invitrogen
T1 sequence (Q96RI1 1-486): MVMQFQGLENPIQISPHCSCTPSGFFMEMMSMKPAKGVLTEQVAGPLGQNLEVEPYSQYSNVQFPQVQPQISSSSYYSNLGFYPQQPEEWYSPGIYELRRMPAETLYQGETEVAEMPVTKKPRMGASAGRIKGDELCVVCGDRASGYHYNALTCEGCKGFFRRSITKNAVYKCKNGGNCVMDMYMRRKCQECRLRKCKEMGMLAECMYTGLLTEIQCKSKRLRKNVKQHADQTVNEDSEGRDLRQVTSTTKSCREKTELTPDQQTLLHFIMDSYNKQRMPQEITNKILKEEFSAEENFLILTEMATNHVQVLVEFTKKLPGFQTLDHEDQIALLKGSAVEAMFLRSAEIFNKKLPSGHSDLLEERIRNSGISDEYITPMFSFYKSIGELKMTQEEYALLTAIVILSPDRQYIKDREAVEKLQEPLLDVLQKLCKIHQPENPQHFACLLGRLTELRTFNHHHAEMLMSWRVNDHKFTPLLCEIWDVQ
Procedure: FXR Biochemical Experiment
The activation of compounds on FXR binding reaction was examined by a homogeneous proximity luminescenceamplification test (alphascreen).
Protein: glutathione-S-transferase-labeled FXR human protein (Invitrogen)
Co-activator: Biotin-labeled steroid receptor coactivator (Anaspec)
Detection reagent: homogeneous proximity luminescence amplification test (alphascreen) Detection Kit (PerkinElmer)
Compound dilution: the test compound was prepared as a 40 μM DMSO solution, and then diluted 3-fold to 10 concentration points. The reference compound was prepared as a 400 μM DMSO solution, followed by diluted 1.5-fold to 10 concentration points. The diluted DMSO solution was added to the wells of a 384-well plate in a volume of 150 nL per well.
Glutathione-S-transferase-labeled FXR human protein and biotin-labeled steroid receptor coactivator were formulated as mixed solutions with concentrations of 0.4 nM and 30 nM, respectively, which was added to the wells of the 384-well plate in a volume of 15 per well, and the plate was incubated for 1 hour at room temperature.
The experiment process was carried out with protecting from light. The incubation was performed for 1 hour at room temperature.
The experiment process was carried out by protecting from light. The incubation was performed for 1 hour at room temperature.

[2] = Pharmacokinetics in mice administrated with single compound; assay type: in vivo, C57BL/6J male mice; details: for drug exposure compared with obeticholic acid / peak concentration compared with obeticholic acid: oral, same dosage (10 mg/kg), in words
Procedure: Twelve C57BL/6J male mice were randomly divided into two groups, 6 mice in each group. […] Plasma (using K2-EDTA as anticoagulant) samples were taken at 0.083, 0.25, 0.5, 1, 2, 4, 6, 8 and 24 hours after administration for the intravenous group; and plasma samples were taken at 0.25, 0.5, 1, 2, 4, 6, 8 and 24 hours after administration for the oral group. For 6 animals in each group, blood samples were collected for 3 animals at one time point, and the first batch of 3 animals was alternately sampled with the second batch of 3 animals. Plasma sample analysis was performed by using LC-MS/MS. The obtained plasma concentrations were plotted against time, and PK parameters were calculated by using Phoenix WinNonlin 6.3.

[3] = Liver-blood ratio experiment of mice via cassette dosing; assay type: in vivo, C57BL/6J male mice; details: for Liver concentration 0.5 h / Liver/plasma concentration ratio 0.5 h / Plasma concentration 0.5 h / Liver concentration 3 h / Liver/plasma concentration ratio 3 h / Plasma concentration 3 h: oral cassette 2 mg/kg/compound
Procedure: Six C57BL/6J male mice were grouped as one oral group. The preparation contained 5 kinds of the developed drugs, and 2 mg/kg/compound was intragastrically administered (the solvent was 0.5% HPMC aqueous solution). The five compounds were firstly dissolved in the solvent, respectively, by ultrasonication or vortex, to form 1 mg/mL solutions (clear solution or suspension), and then the solutions of the five compound were mixed in equal volumes (1:1:1:1:1, v:v:v:v:v) in a glass bottle. After intragastrical oral administration, plasma and liver tissue samples were collected from 3 animals at 0.5 hours after administration; corresponding samples were collected from the other 3 animals at 3 hours after administration. After collection, the liver tissue was homogenized by using ice-cold homogenization buffer (methanol: 15 mM PBS buffer (pH 7.4)=1:2, v:v) according to liver weight: homogenization buffer volume=1:3. Plasma and liver tissue samples were analyzed by using a five-in-one LC-MS/MS analysis method developed in advance. Plasma concentrations and liver tissue homogenate concentrations were obtained, and the concentration ratio of liver tissue to plasma was calculated by using Excel.

[4] = target: T2, FXR (FXR HEK 293T DA cell line) (Homo sapiens, UniProt Q96RI1); experiment: FXR cell experiment (β-lactamase reporter gene); assay type: cell-based
T2 construct: The UAS-driven beta-lactamase is the reporter
T2 sequence (Q96RI1 262-486 limits assumed): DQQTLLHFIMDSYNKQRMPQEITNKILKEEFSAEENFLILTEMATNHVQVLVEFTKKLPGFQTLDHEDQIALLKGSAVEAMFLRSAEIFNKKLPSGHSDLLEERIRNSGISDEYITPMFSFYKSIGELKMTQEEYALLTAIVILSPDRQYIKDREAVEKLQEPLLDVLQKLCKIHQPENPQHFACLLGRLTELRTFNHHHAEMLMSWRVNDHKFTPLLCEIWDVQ
Procedure: 2. Cell culture medium: DMEM medium supplemented with 10% serum and Penicillin/Streptomycin (1×).
3. Detection reagent: GeneBLAzer® Reporter Gene Detection Kit (Invitrogen)
1. Compound dilution: the test compound was prepared as a 100 μM DMSO solution, and then the compound was diluted 3-fold to 10 concentration points. The reference compound was prepared as a 100 μM DMSO solution, and then diluted 1.3-fold to 10 concentration points. The diluted DMSO solution was added to the wells of a 384-well plate in a volume of 200 nL per well.
3. The 384-well microplate was incubated at 37° C., 5% CO2 for 16 hours.
4. 6 μL of 1 mM LiveBLAzer™-FRET B/G (CCF4-AM) substrate was mixed with 60 μL of B solution and 934 μL of C solution, which was added to the wells of a 384-well plate in a volume of 8 μL per well.
5. The 384-well microplate was incubated in dark for 2 hours at room temperature.
7. Analytical data: the data were analyzed by using Prism 5.0 to calculate the EC50 value of the activation of the compound.

[5] = male, C57BL/6J, mouse, plasma, oral (intragastric) 10 mg/kg, 0.5% HPMC
[6] = oral, same dosage (2 mg/kg), 0.5 hours and 3 hours, in words

Compound	pEC50 [1]	FXR enzymatic activity Efficacy [1]	AUC [2, 5]	Cmax [2, 5]	Tmax [2, 5]	drug exposure compared with obeticholic acid [2]	peak concentration compared with obeticholic acid [2]	Liver concentration 0.5 h [3]	Liver/plasma concentration ratio 0.5 h [3]	Plasma concentration 0.5 h [3]	Liver concentration 3 h [3]	Liver/plasma concentration ratio 3 h [3]	Plasma concentration 3 h [3]	drug concentrations in the liver compared with control compound [3, 6]	liver/plasma concentration ratios compared with control compound [3, 6]	pEC50 ([4]; FXR HEK 293T DA cells, β-lactamase reporter, 16 hours, read-out: FXR cell viability EC50)	FXR cell viability Efficacy ([4]; highest signal relative to reference compound CDCA)
CC[C@H]1[C@@H](O)[C@@H]2[C@H](CC[C@]3(C)[C@@H]([C@H](C)CCOc4ncc(C(=O)O)cc4F)CC[C@@H]23)[C@@]2(C)CC[C@@H](O)C[C@@H]12 [The compound of formula I-F]	8.60	138%															
CC[C@H]1[C@@H](O)[C@@H]2[C@H](CC[C@]3(C)[C@@H]([C@H](C)CCOc4ccc(C(=O)O)cn4)CC[C@@H]23)[C@@]2(C)CC[C@@H](O)C[C@@H]12 [The compound of formula I-H]	8.22	249%	2.34 µM·h	936 nM	30 min	higher than that of the control compound obeticholic acid	close to that of the control compound obeticholic acid	1959 nM	24	83 nM	701 nM	16	45 nM	higher than those of the control compound	higher than those of the control compound		
CC[C@H]1[C@@H](O)[C@@H]2[C@H](CC[C@]3(C)[C@@H]([C@H](C)CCC(=O)O)CC[C@@H]23)[C@@]2(C)CC[C@@H](O)C[C@@H]12 [Obeticholic acid, obeticholic acid, reference compound]								711 nM	5	151 nM	625 nM	10	63 nM				
CC[C@H]1[C@@H](O)[C@@H]2[C@H](CC[C@]3(C)[C@@H]([C@H](C)CCOc4ncc(C(=O)O)cc4Cl)CC[C@@H]23)[C@@]2(C)CC[C@@H](O)C[C@@H]12 [The compound of formula I-Cl]		248%				higher than that of the control compound obeticholic acid	higher than that of the control compound obeticholic acid									8.52	150%
